Experimental findings from ChEMBL document CHEMBL1139511, “AFMoC enhances predictivity of 3D QSAR: a case study with DOXP-reductoisomerase” (J Med Chem, 2005) are described below.

This test concerns the target T1, 1-deoxy-D-xylulose 5-phosphate reductoisomerase (Escherichia coli K-12, UniProt P45568).
T1 sequence (P45568 whole entry): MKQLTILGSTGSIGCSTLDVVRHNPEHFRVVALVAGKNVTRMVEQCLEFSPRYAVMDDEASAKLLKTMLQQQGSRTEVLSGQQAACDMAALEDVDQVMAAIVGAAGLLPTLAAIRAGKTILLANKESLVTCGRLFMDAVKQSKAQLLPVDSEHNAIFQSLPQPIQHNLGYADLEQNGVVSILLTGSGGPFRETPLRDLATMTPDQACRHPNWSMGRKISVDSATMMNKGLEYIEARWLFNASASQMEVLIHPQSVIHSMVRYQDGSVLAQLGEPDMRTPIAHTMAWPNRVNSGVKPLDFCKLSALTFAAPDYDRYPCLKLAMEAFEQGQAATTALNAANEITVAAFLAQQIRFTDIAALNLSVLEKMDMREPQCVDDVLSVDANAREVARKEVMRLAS
The experiment in a line: Inhibitory concentration against DOXP reductoisomerase.
Broadly, the IC50 is the midpoint of a concentration-inhibition curve. `O=C(CN(Cc1ccccc1)CP(=O)(O)O)NO` had an IC50 of 1.82 µM. Compound `O=C(CCCP(=O)(O)O)NO` showed an IC50 of 0.257 µM. The result for `O=C(CNCP(=O)(O)O)NO` reads 16.2 µM. `CN(CC(=O)NO)CP(=O)(O)O` showed an IC50 of 31.6 µM.

`CS(=O)(=O)N(O)CCCP(=O)(O)O` gave an IC50 of 38 µM. The result for `NC(CCP(=O)(O)O)C(=O)NO` (stereo unspecified) reads 9.77 µM; that for `CCCCCCCC(=O)N(O)CCCP(=O)(O)O`, 1.7 µM. Next, `CC(C)(C)C(=O)N(O)CCCP(=O)(O)O`: 11 µM; `NCCCCCC(=O)N(O)CCCP(=O)(O)O`: 40.7 µM. Next, `CC(=O)N(O)C1CCC(P(=O)(O)O)C1` (stereo unspecified): 2.34 µM; `CC(O)CC(=O)N(O)CCCP(=O)(O)O` (stereo unspecified): 50.1 µM; `CC(=O)N(O)C/C=C/P(=O)(O)O`: 0.0646 µM. With `O=C(c1ccc(-c2ccccc2)cc1)N(O)CCCP(=O)(O)O`, it took 2.4 µM to reach half-maximal inhibition (IC50). Compound `COc1ccc(CC(=O)NCC(=O)N(O)CCCP(=O)(O)O)cc1OC` had an IC50 of 14.1 µM. Next, `O=C(NCC(=O)N(O)CCCP(=O)(O)O)c1ccc(OC(F)(F)F)cc1`: 5.13 µM; `CC(=O)N(O)CC(C)CP(=O)(O)O` (stereo unspecified): 0.646 µM.

Consider `CCCC(CCN(O)C=O)P(=O)(O)O` (stereo unspecified), for which the IC50 was 8.13 µM. Compound `CC(C)C(CCN(O)C=O)P(=O)(O)O` (stereo unspecified) had an IC50 of 6.61 µM. The result for `NCCCC(=O)N(O)CCCP(=O)(O)O` reads 25.7 µM; that for `O=C(CCCOc1ccccc1)NCC(=O)N(O)CCCP(=O)(O)O`, 1 µM. For the compound `CCC(CCN(O)C=O)P(=O)(O)O` (stereo unspecified), 1.78 µM corresponded to half-maximal inhibition (IC50). In turn, `O=C(NCC(=O)N(O)CCCP(=O)(O)O)C1CC1` had a 50% inhibitory concentration (IC50) of 7.08 µM. `O=C(N(O)CCCP(=O)(O)O)C(F)(F)F` gave a concentration for half-maximal inhibition (IC50) of 14.1 µM.

For `O=C(C1CC1)N(O)CCCP(=O)(O)O`, the IC50 was 36.3 µM. The result for `COC(=O)c1ccccc1C(=O)N(O)CCCP(=O)(O)O` reads 100 µM; that for `CC(=O)N(O)CCC(C)P(=O)(O)O` (stereo unspecified), 0.0537 µM; that for `NCCC(=O)N(O)CCCP(=O)(O)O`, 15.8 µM. Turning to `CCOC(=O)C(=O)N(O)C1CCC(P(=O)(O)O)C1` (stereo unspecified), half-maximal inhibition (IC50) was put at 15.8 µM. The compound `CCC(C(=O)NCC(=O)N(O)CCCP(=O)(O)O)c1ccccc1` (stereo unspecified) showed an IC50 of 20 µM. The compound `O=C(CCCc1c[nH]c2ccccc12)NCC(=O)N(O)CCCP(=O)(O)O` showed a half-inhibitory concentration (IC50) of 17 µM. The result for `O=C(c1cccc2ccccc12)N(O)CCCP(=O)(O)O` reads 0.229 µM. In the case of `CCC(CCN(O)C(C)=O)P(=O)(O)O` (stereo unspecified), it took 0.708 µM to reach half-maximal inhibition (IC50). Next, `CCCC(CCN(O)C(C)=O)P(=O)(O)O` (stereo unspecified): 6.61 µM; `O=C(c1ccccc1O)N(O)C1CCC(P(=O)(O)O)C1` (stereo unspecified): 50.1 µM. The result for `CC(C)CC(=O)N(O)CCCP(=O)(O)O` reads 24 µM; that for `O=C(C(Cl)Cl)N(O)CCCP(=O)(O)O`, 0.178 µM; that for `O=C(c1ccccc1O)N(O)CCCP(=O)(O)O`, 1.82 µM.

`O=C(CCc1ccccc1)N(O)CCCP(=O)(O)O`: 50.1 µM corresponded to half-maximal inhibition (IC50). The result for `O=CN(O)CC(Cc1ccccc1)CP(=O)(O)O` (stereo unspecified) reads 6.46 µM; that for `O=C(c1ccccc1)N(O)CCCP(=O)(O)O`, 0.1 µM. The result for `CC(=O)N(O)CCCP(=O)(O)O` [FR-900098] reads 0.0282 µM.
